Source: the NIST ThermoML archive (doi:10.1021/je030223f)
“And” between values parts separate entries of the source, which are not always exact repeats. Identical values can stand only once.

Conditions: Liquid, Calculated from knudsen effusion weight loss

[I][Tm]([I])[I] [thulium triiodide]
Conditions	vapor or sublimation pressure
887 K	0.0001318 kPa
888 K	7.763e-05 kPa
897 K	0.0001585 kPa
899 K	0.0001175 kPa
902 K	0.0002089 kPa
905 K	0.0002344 kPa and 0.0001698 kPa
906 K	0.0002291 kPa and 0.0001585 kPa
907 K	0.0002089 kPa
909 K	0.0001585 kPa
911 K	0.0002884 kPa
912 K	0.0003162 kPa and 0.0002089 kPa
914 K	0.000309 kPa and 0.0002344 kPa
916 K	0.0002884 kPa and 0.0002089 kPa
920 K	0.0004467 kPa and 0.0004571 kPa
921 K	0.0003715 kPa
922 K	0.0003162 kPa
923 K	0.0003388 kPa
925 K	0.0004169 kPa and 0.0002884 kPa
928 K	0.0005012 kPa
930 K	0.000631 kPa and 0.0006607 kPa
931 K	0.0004169 kPa
932 K	0.000537 kPa and 0.0004677 kPa
933 K	0.000389 kPa
936 K	0.0006607 kPa
938 K	0.0008318 kPa and 0.0005495 kPa
939 K	0.0007079 kPa and 0.000912 kPa
940 K	0.0005248 kPa
941 K	0.0006607 kPa
946 K	0.000955 kPa and 0.001122 kPa
947 K	0.0007586 kPa
948 K	0.001148 kPa and 0.000955 kPa
949 K	0.0007244 kPa
951 K	0.0009772 kPa
953 K	0.001148 kPa
954 K	0.001479 kPa
955 K	0.001318 kPa and 0.001047 kPa
956 K	0.001585 kPa and 0.0009333 kPa
959 K	0.00182 kPa
960 K	0.001288 kPa
961 K	0.001445 kPa and 0.001905 kPa
963 K	0.001738 kPa and 0.001349 kPa
964 K	0.00123 kPa
966 K	0.002089 kPa and 0.002291 kPa and 0.001585 kPa
968 K	0.002754 kPa
969 K	0.001862 kPa
970 K	0.002512 kPa
971 K	0.002344 kPa and 0.001585 kPa
973 K	0.00257 kPa and 0.001862 kPa
975 K	0.002512 kPa
976 K	0.003631 kPa and 0.002951 kPa and 0.002138 kPa
978 K	0.003388 kPa
980 K	0.00309 kPa and 0.002042 kPa
981 K	0.002818 kPa and 0.002399 kPa
983 K	0.004365 kPa
984 K	0.002754 kPa
987 K	0.004571 kPa
988 K	0.00389 kPa
989 K	0.002818 kPa and 0.00309 kPa
991 K	0.005495 kPa and 0.005012 kPa
993 K	0.003548 kPa
999 K	0.007079 kPa and 0.00631 kPa
1002 K	0.004898 kPa
1006 K	0.009333 kPa
1008 K	0.00871 kPa
1014 K	0.01122 kPa
1017 K	0.01148 kPa
1024 K	0.01514 kPa
1025 K	0.01445 kPa
1032 K	0.01995 kPa
1034 K	0.0195 kPa
1043 K	0.02818 kPa and 0.0257 kPa
1051 K	0.03715 kPa and 0.03311 kPa

[Br-].[Br-].[Br-].[Tm+3] [thulium tribromide]
Conditions	vapor or sublimation pressure
921 K	0.0001148 kPa
924 K	0.0001259 kPa
927 K	0.0001349 kPa
931 K	0.0002042 kPa
937 K	0.0002042 kPa
938 K	0.0002188 kPa and 0.0002754 kPa
942 K	0.0002291 kPa
947 K	0.000309 kPa and 0.0004074 kPa
949 K	0.0003467 kPa
952 K	0.0004074 kPa
953 K	0.0003631 kPa
956 K	0.0004571 kPa
958 K	0.0005888 kPa
961 K	0.0005012 kPa
964 K	0.0006607 kPa
965 K	0.0006607 kPa
967 K	0.0007762 kPa
968 K	0.000631 kPa
971 K	0.0007244 kPa
974 K	0.0009772 kPa
976 K	0.000912 kPa
978 K	0.001096 kPa
980 K	0.0009772 kPa
984 K	0.001318 kPa
987 K	0.001288 kPa
988 K	0.001514 kPa and 0.001349 kPa
990 K	0.001445 kPa
995 K	0.001622 kPa
999 K	0.002399 kPa
1000 K	0.001995 kPa
1001 K	0.002239 kPa
1004 K	0.00257 kPa and 0.002291 kPa
1006 K	0.002692 kPa
1007 K	0.002455 kPa
1009 K	0.003236 kPa and 0.002951 kPa
1013 K	0.003236 kPa and 0.004074 kPa
1015 K	0.003467 kPa and 0.003162 kPa
1019 K	0.003548 kPa
1020 K	0.004571 kPa and 0.004677 kPa
1022 K	0.00537 kPa
1024 K	0.004365 kPa
1025 K	0.004677 kPa
1026 K	0.004786 kPa
1027 K	0.004571 kPa
1028 K	0.005623 kPa
1030 K	0.005623 kPa
1033 K	0.005495 kPa
1035 K	0.006607 kPa
1037 K	0.005754 kPa
1038 K	0.007762 kPa
1039 K	0.006918 kPa
1042 K	0.006607 kPa
1043 K	0.008511 kPa
1046 K	0.00955 kPa
1048 K	0.01288 kPa
1050 K	0.00955 kPa
1056 K	0.01349 kPa
1061 K	0.01445 kPa
1063 K	0.01318 kPa
1066 K	0.01995 kPa
1070 K	0.01995 kPa
1073 K	0.02754 kPa
1076 K	0.02512 kPa
1080 K	0.0263 kPa
1088 K	0.03388 kPa
1089 K	0.04074 kPa
1092 K	0.03467 kPa
1096 K	0.04266 kPa
1103 K	0.04677 kPa
1105 K	0.06457 kPa
1107 K	0.06166 kPa
1116 K	0.06761 kPa
1118 K	0.07943 kPa
1123 K	0.09772 kPa
1127 K	0.1047 kPa and 0.09333 kPa
1135 K	0.1288 kPa
1136 K	0.1349 kPa
1143 K	0.166 kPa
1155 K	0.2138 kPa
